In US20240199647A1, “ANTI-VIRAL COMPOUNDS” (Aligos Therapeutics, Inc., priority 2022, published 2024) one finds IC50, EC50 and CC50 data, which are given here for 23 compounds.

One series addresses SARS-Cov-2 3CLpro (Severe acute respiratory syndrome coronavirus 2, UniProt P0DTD1). In words: biochemical. The following applies: Table A, read-out: SARS-Cov-2 (IC50).
For series [1], the system named is SARS-CoV-2 B.1.1.7 lineage. As to the kind of experiment: microbe, parasite or virus in culture. The class given is cell-based. The following applies: Severe acute respiratory syndrome coronavirus 2, Table C, SARS-CoV-2 B.1.1.7 in A549-dual_ACE2_TMPRSS2 cells, read-out: A549-dual_ACE2_TMPRSS2 (EC50).
The next series can be described thus: in vitro. The note with it: human.

Where two headings read alike, the source gives them in different places. Where only a bound is given, the exact number is not on record here.

For the compound `CN(C(=O)[C@@H](CC1CCCCC1)NC(=O)C(F)(F)F)[C@@H](CC1CC1)C(=O)N1C[C@@]2(C[C@H]1C#N)Oc1cccnc1NC2=O` [Compound 145], the IC50 at SARS-Cov-2 3CLpro (class symbols) is less than 0.02 µM. In series [1] (class symbols), the EC50 was less than 0.1 µM. The same compound displayed a CC50 in the series “in vitro” of more than 1 µM.

As to `CC(C)C[C@@H](C(=O)N1CC2(C[C@H]1C#N)C(=O)Nc1ccnn12)N(C)C(=O)[C@H](C)NC(=O)C(F)(F)F` (stereo partly drawn) [Example 7, (2S)—N-[(2S)-1-[(5'S)-5′-cyano-2-oxo-1H-spiro[pyrazolo[1,5-a]imidazole-3,3′-pyrrolidin]-1′-yl]-4-methyl-1-oxopentan-2-yl]-N-methyl-2-(2,2,2-trifluoroacetamido)propanamide], the IC50 at SARS-Cov-2 3CLpro (class symbols) was in the range of 0.02 to 0.2 µM. The EC50 in series [1] (class symbols) was 1 to 10 µM. This compound also came in with a CC50 in “in vitro” of more than 1 µM.

As to `CC(C)C[C@@H](C(=O)N1C[C@]2(CC(C(C)C)NC2=O)C[C@H]1C#N)N(C)C(=O)[C@H](C)NC(=O)C(F)(F)F` (stereo partly drawn) [Example 38], the IC50 at SARS-Cov-2 3CLpro (class symbols) was less than 0.02 µM. Besides, in series [1] (class symbols), the EC50 is 0.1 to 1 µM. The CC50 in “in vitro” is more than 1 µM.

Take `C[C@H](NC(=O)C(F)(F)F)C(=O)N[C@@H](CC1CC1)C(=O)N1C[C@@]2(C[C@H]1C#N)Oc1cccnc1NC2=O` [Compound 180]: at SARS-Cov-2 3CLpro (class symbols), the IC50 was in the range of 0.2 to 2 µM. For the same compound, the EC50 in series [1] (cells given as a bound) is more than 1 µM. Further, the CC50 in the series “in vitro” was more than 1 µM.

As for `CN(C(=O)[C@@H](Cc1ccncc1)NC(=O)C(F)(F)F)[C@@H](CC1CC1)C(=O)N1C[C@@]2(C[C@H]1C#N)Oc1cccnc1NC2=O` [Compound 148], the IC50 on SARS-Cov-2 3CLpro (class symbols) is less than 0.02 µM. Also, the concentration for a half-maximal effect (EC50) in series [1] (cells given as a bound) was more than 1 µM. This compound also gave a CC50 in the series “in vitro” of more than 1 µM.

As for `C[C@H](NC(=O)C12CC(C1)C2)C(=O)N(C)[C@@H](CC1CC1)C(=O)N1C[C@@]2(C[C@H]1C#N)Oc1cccnc1NC2=O` [Compound 216], the IC50 at SARS-Cov-2 3CLpro (class symbols) is less than 0.02 µM. Also, in series [1] (class symbols), the EC50 is 0.1 to 1 µM. This compound yielded a CC50 in the series “in vitro” of more than 1 µM.

With `CC(C)C[C@@H](C(=O)N1C[C@@]2(C[C@H]1C#N)Oc1ccc(F)cc1NC2=O)N(C)C(=O)[C@H](C)NC(=O)C(F)(F)F` [Compound 14a, (S)—N—((S)-1-((2R,5'S)-5′-cyano-6-fluoro-3-oxo-3,4-dihydrospiro[benzo[b][1,4]oxazine-2,3′-pyrrolidin]-1′-yl)-4-methyl-1-oxopentan-2-yl)-N-methyl-2-(2,2,2-trifluoroacetamido)propanamide], in series [1] (class symbols), the EC50 was 0.1 to 1 µM. The CC50 in “in vitro” is more than 1 µM.

For the compound `CN(C(=O)c1cc2ccccc2c(=O)[nH]1)[C@@H](CC1CC1)C(=O)N1C[C@@]2(C[C@H]1C#N)Oc1cccnc1NC2=O` [Compound 237], the IC50 at SARS-Cov-2 3CLpro (class symbols) is 0.2 to 2 µM.

Regarding `CC(C)C[C@H](C(=O)N1C[C@@]2(C[C@H]1C#N)Oc1ccc(F)cc1NC2=O)N(C)C(=O)[C@H](C)NC(=O)C(F)(F)F` [Compound 14b, (S)—N—((R)-1-((2R,5'S)-5′-cyano-6-fluoro-3-oxo-3,4-dihydrospiro[benzo[b][1,4]oxazine-2,3′-pyrrolidin]-1′-yl)-4-methyl-1-oxopentan-2-yl)-N-methyl-2-(2,2,2-trifluoroacetamido)propanamide], the EC50 in series [1] (cells given as a bound) was more than 1 µM. In “in vitro”, this compound returned a CC50 of more than 1 µM.

On to `CC(C)C[C@@H](C(=O)N1C[C@]2(C[C@H]1C#N)C(=O)NC(=O)N2C)N(C)C(=O)[C@H](C)NC(=O)C(F)(F)F` [Compound 10, (S)—N—((S)-1-((5R,8S)-8-cyano-1-methyl-2,4-dioxo-1,3,7-triazaspiro[4.4]nonan-7-yl)-4-methyl-1-oxopentan-2-yl)-N-methyl-2-(2,2,2-trifluoroacetamido)propanamide], for which the IC50 on SARS-Cov-2 3CLpro (class symbols) lay in the range of 0.2 to 2 µM. Also, in series [1] (class symbols), the EC50 was in the range of 1 to 10 µM. This compound showed a CC50 in the series “in vitro” of more than 1 µM.

`CN(C(=O)[C@H](CCCN)NC(=O)C(F)(F)F)[C@@H](CC1CC1)C(=O)N1C[C@@]2(C[C@H]1C#N)Oc1cccnc1NC2=O` [Compound 236]: on SARS-Cov-2 3CLpro (class symbols), the IC50 was less than 0.02 µM.

As to `CN(C(=O)[C@H](CC1CC1)NC(=O)C(F)(F)F)[C@@H](CC1CC1)C(=O)N1C[C@@]2(C[C@@H]1C#N)C(=O)NCc1ccccc12` (single isomer, unassigned) [Compound 123], the IC50 on SARS-Cov-2 3CLpro (cells given as a bound) was more than 2 µM.

As for `CN(C(=O)[C@H](CC1CC1)NC(=O)C(F)(F)Cl)[C@@H](CC1CC1)C(=O)N1C[C@@]2(C[C@H]1C#N)Oc1ncccc1NC2=O` [Compound 238], the IC50 on SARS-Cov-2 3CLpro (class symbols) is less than 0.02 µM.

With `CN(C(=O)[C@H](CC1CC1)NC(=O)c1ccc(F)cc1)[C@@H](CC1CC1)C(=O)N1C[C@@]2(C[C@H]1C#N)Oc1ccccc1CNC2=O` [Compound 161], the IC50 on SARS-Cov-2 3CLpro (class symbols) was less than 0.02 µM. Moreover, the EC50 in series [1] (class symbols) was less than 0.1 µM. In the series “in vitro”, this compound gave a CC50 of more than 1 µM.

For `CN(C(=O)[C@@H](NC(=O)C(F)(F)F)C12CC(C1)C2)[C@@H](CC1CC1)C(=O)N1C[C@@]2(C[C@H]1C#N)Oc1cccnc1NC2=O` [Compound 217], the IC50 on SARS-Cov-2 3CLpro (class symbols) is less than 0.02 µM. In addition, the EC50 in series [1] (class symbols) was 0.1 to 1 µM. For the same compound, the CC50 in “in vitro” is more than 1 µM.

As to `[2H]C([2H])([2H])N(C(=O)[C@H](C)NC(=O)C(F)(F)F)[C@@H](CC(C)C)C(=O)N1C[C@@]2(C[C@H]1C#N)Oc1cc(F)cc(F)c1NC2=O` [Compound 109], on SARS-Cov-2 3CLpro (class symbols), the IC50 is less than 0.02 µM. The EC50 in series [1] (class symbols) was in the range of 0.1 to 1 µM. The compound also had a CC50 in “in vitro” of more than 1 µM.

For `CN(C(=O)[C@H](CC1CC1)NC(=O)C(F)(F)F)[C@@H](CC1CC1)C(=O)N1C[C@@]2(C[C@H]1C#N)Sc1ccccc1NC2=O` [Example 39, (S)—N—((S)-1-((2R,5'S)-5′-cyano-3-oxo-3,4-dihydrospiro[benzo[b][1,4]thiazine-2,3′-pyrrolidin]-1′-yl)-3-cyclopropyl-1-oxopropan-2-yl)-3-cyclopropyl-N-methyl-2-(2,2,2-trifluoroacetamido)propanamide], at SARS-Cov-2 3CLpro (class symbols), the IC50 is less than 0.02 µM. Also, the EC50 in series [1] (class symbols) was less than 0.1 µM. Besides, the CC50 in “in vitro” was more than 1 µM.

Take `C[C@H](NC(=O)C1(C)CCC1)C(=O)N(C)[C@@H](CC1CC1)C(=O)N1C[C@@]2(C[C@H]1C#N)Oc1cccnc1NC2=O` [Compound 212]: the IC50 at SARS-Cov-2 3CLpro (class symbols) was less than 0.02 µM. In series [1] (class symbols), the EC50 lay within 0.1 to 1 µM. The CC50 in “in vitro” is more than 1 µM.

With `CC(C)C[C@@H](C(=O)N1CC2(C[C@H]1C#N)Cn1nc(Br)cc1NC2=O)N(C)C(=O)[C@H](C)NC(=O)C(F)(F)F` (stereo partly drawn) [Example 41, (2S)—N-((2S)-1-((5'S)-2-bromo-5′-cyano-5-oxo-4,5-dihydro-7H-spiro[pyrazolo[1,5-a]pyrimidine-6,3′-pyrrolidin]-1′-yl)-4-methyl-1-oxopentan-2-yl)-N-methyl-2-(2,2,2-trifluoroacetamido)propanamide], at SARS-Cov-2 3CLpro (class symbols), the IC50 was 0.2 to 2 µM. The EC50 in series [1] (cells given as a bound) is more than 1 µM. Besides, the CC50 in “in vitro” is more than 1 µM.

On to `CC([C@H](NC(=O)C(F)(F)F)C(=O)N(C)[C@@H](CC1CC1)C(=O)N1C[C@@]2(C[C@H]1C#N)Oc1cccnc1NC2=O)C(C)(C)C` (stereo partly drawn) [Compound 234], for which the IC50 on SARS-Cov-2 3CLpro (class symbols) is less than 0.02 µM.

Regarding `C[C@H](NC(=O)C(F)(F)F)C(=O)N(C)[C@@H](CC1CC1)C(=O)N1C[C@@]2(C[C@H]1C#N)Oc1c(cccc1OC(F)(F)F)NC2=O` [Compound 235], the IC50 at SARS-Cov-2 3CLpro (class symbols) was less than 0.02 µM.

`CO[C@H](C)[C@H](NC(=O)C(F)(F)F)C(=O)N(C)[C@@H](CC1CC1)C(=O)N1C[C@@]2(C[C@H]1C#N)Oc1cccnc1NC2=O` [Compound 239]: on SARS-Cov-2 3CLpro (class symbols), the IC50 was less than 0.02 µM.

For `CO[C@H](C)[C@H](NC(=O)C(F)(F)F)C(=O)N(C)[C@@H](CC1CC1)C(=O)N1C[C@@]2(C[C@H]1C#N)Oc1ncccc1NC2=O` [Compound 240], the IC50 at SARS-Cov-2 3CLpro (class symbols) is less than 0.02 µM.
